Among the data in ChEMBL document CHEMBL4732115, “Discovery of novel cell-penetrating and tumor-targeting peptide-drug conjugate (PDC) for programmable delivery of paclitaxel and cancer treatment” (Eur J Med Chem, 2021) are IC50, Activity and Drug uptake values, retold here.

Broadly, the IC50 is the point on the concentration scale where inhibition reaches its midpoint.

Calls of active or inactive are those of the source. The calls are words filed in the database; no cut-off is given here. Some results are limits rather than exact numbers.

Data set [1] has as its system MCF7. In words: Cytotoxicity against human MCF7 cells assessed as reduction in cell viability measured after 48 hrs by MTT assay. In kind it is functional, cell-based. The conditions noted are these: MCF7, 48 h. (In general: Tetrazolium assays rely on reduction of a dye to a coloured formazan, in cell work by metabolically active cells.)
Data set [2] concerns HT-29. As to the kind of experiment: Cytotoxicity against human HT-29 cells assessed as reduction in cell viability measured after 48 hrs by MTT assay. The conditions noted are these: HT-29, 48 h. Format: functional, cell-based.
Data set [3] can be described thus: Neurotoxicity in BALB/c mouse assessed as change in GABA level at 12 umol/kg, ip administered every two days for 14 days measured post last dose by LC-MS analysis. The conditions noted are these: in vivo, 336 h, dose 12 µmol/kg, time 14 day. Format: toxicity, organism-based.
The nature of data set [4]: Neurotoxicity in BALB/c mouse assessed as change in noradrenaline level at 12 umol/kg, ip administered every two days for 14 days measured post last dose by LC-MS analysis. In kind it is toxicity, organism-based. The conditions noted are these: in vivo, 336 h, dose 12 µmol/kg, time 14 day.
Data set [5] in a line: Neurotoxicity in BALB/c mouse assessed as change in dopamine level at 12 umol/kg, ip administered every two days for 14 days measured post last dose by LC-MS analysis. In kind it is toxicity, organism-based. The conditions noted are these: in vivo, 336 h, dose 12 µmol/kg, time 14 day.
The test system of data set [6] is NCM460. As to the kind of experiment: Cytotoxicity against human NCM460 cells assessed as reduction in cell viability measured after 48 hrs by MTT assay. In kind it is cell-based. The conditions noted are these: NCM460, 48 h.
Data set [7] has as its system HEK293. In words: Cytotoxicity against HEK293 cells assessed as reduction in cell viability measured after 48 hrs by MTT assay. In kind it is cell-based. The conditions noted are these: Homo sapiens, HEK293, 48 h.
Data set [8] in a line: Neurotoxicity in BALB/c mouse assessed as change in vanillylmandelic acid level at 12 umol/kg, ip administered every two days for 14 days measured post last dose by LC-MS analysis. In kind it is toxicity, organism-based. The conditions noted are these: in vivo, 336 h, dose 12 µmol/kg, time 14 day.
The subject of data set [9] is MCF7. In words: Antitumor activity against human MCF7 cells xenografted in BALB/c nude mouse assessed as reduction in tumor volume at 12 umol/kg, ip administered every two days for two weeks relative to control. Format: functional. Set-up: scale not given: the % may be the effect or the level left. The conditions noted are these: dose 12 µmol/kg; time 2 weeks. A general note: In xenograft studies the graft and the host belong to different species.

Data set [10] deals with A2780. As to the kind of experiment: Cytotoxicity against human A2780 cells assessed as reduction in cell viability measured after 48 hrs by MTT assay. In kind it is functional, cell-based. The conditions noted are these: A2780, 48 h.
A short description of data set [11]: Cytotoxicity against human A2780/PTX cells assessed as reduction in cell viability measured after 48 hrs by MTT assay. Format: functional, cell-based.
A short description of data set [12]: Neurotoxicity in BALB/c mouse assessed as change in acetylcholine level at 12 umol/kg, ip administered every two days for 14 days measured post last dose by LC-MS analysis. Format: toxicity, organism-based. The conditions noted are these: in vivo, 336 h, dose 12 µmol/kg, time 14 day.
The nature of data set [13]: Drug uptake in human MCF7 cells at 20 nM measured after 4 hrs by LC-MS analysis. In kind it is ADME, cell-based. The conditions noted are these: mcf7, 4 h, 0.02 µM.
In data set [14] the test system is MCF7. As to the kind of experiment: Induction of mitochondrial membrane potential loss in human MCF7 cells at IC50 measured after 4 hrs by JC-1 staining based flow cytometry. In kind it is functional, cell-based. On the technique in general: Flow cytometry measures light scatter and fluorescence of single cells or particles in a stream.
Data set [15] can be described thus: Drug uptake in tumor of BALB/c nude mouse xenografted with human MCF7 cells at 8 to 12 umol/kg, ip measured after 2 hrs by LC-MS analysis. In kind it is ADME, organism-based, Neoplasm. The conditions noted are these: in vivo, dose 8-12 µmol/kg.
A short description of data set [16]: Neurotoxicity in BALB/c mouse assessed as change in histamine level at 12 umol/kg, ip administered every two days for 14 days measured post last dose by LC-MS analysis. Format: toxicity, organism-based. The conditions noted are these: in vivo, 336 h, dose 12 µmol/kg, time 14 day.
Data set [17] has as its system MCF7. In words: Antitumor activity against human MCF7 cells xenografted in BALB/c nude mouse assessed as reduction in tumor weight at 12 umol/kg, ip administered every two days for two weeks relative to control. In kind it is functional. Set-up: scale not given: the % may be the effect or the level left. The conditions noted are these: dose 12 µmol/kg; time 2 weeks.

Data set [18] concerns MCF7. As to the kind of experiment: Cell cycle arrest in human MCF7 cells assessed as increase in accumulation at G2/M-phase at IC50 measured after 4 hrs by […] flow cytometry. Format: functional.
The nature of data set [19]: Neurotoxicity in BALB/c mouse assessed as increase in pain sensitivity at 12 umol/kg, ip administered every two days for 14 days by cold water tail immersion test. Format: toxicity, organism-based. The conditions noted are these: in vivo, 336 h, dose 12 µmol/kg, time 14 day.
A short description of data set [20]: Neurotoxicity in BALB/c mouse assessed as increase in pain sensitivity at 12 umol/kg, ip administered every two days for 14 days by hot-plate test. The conditions noted are these: in vivo, 336 h, dose 12 µmol/kg, time 14 day. Format: toxicity, organism-based.
The nature of data set [21]: Neurotoxicity in BALB/c mouse assessed as change in DOPAC level at 12 umol/kg, ip administered every two days for 14 days measured post last dose by LC-MS analysis. In kind it is toxicity, organism-based. The conditions noted are these: in vivo, 336 h, dose 12 µmol/kg, time 14 day.
Data set [22] in a line: Neurotoxicity in BALB/c mouse assessed as increase in pain sensitivity at 12 umol/kg, ip administered every two days for 14 days by hot water tail immersion test. Format: toxicity, organism-based. The conditions noted are these: in vivo, 336 h, dose 12 µmol/kg, time 14 day.
Data set [23] is described as follows: Neurotoxicity in BALB/c mouse assessed as change in serotonin level at 12 umol/kg, ip administered every two days for 14 days measured post last dose by LC-MS analysis. Format: toxicity, organism-based. The conditions noted are these: in vivo, 336 h, dose 12 µmol/kg, time 14 day.
The nature of data set [24]: Neurotoxicity in BALB/c mouse assessed as change in glutamine level at 12 umol/kg, ip administered every two days for 14 days measured post last dose by LC-MS analysis. In kind it is toxicity, organism-based. The conditions noted are these: in vivo, 336 h, dose 12 µmol/kg, time 14 day.
A short description of data set [25]: Neurotoxicity in BALB/c mouse assessed as change in histidine level at 12 umol/kg, ip administered every two days for 14 days measured post last dose by LC-MS analysis. In kind it is toxicity, organism-based. The conditions noted are these: in vivo, 336 h, dose 12 µmol/kg, time 14 day.
Data set [26] can be described thus: Neurotoxicity in BALB/c mouse assessed as change in glutamate level at 12 umol/kg, ip administered every two days for 14 days measured post last dose by LC-MS analysis. Format: toxicity, organism-based. The conditions noted are these: in vivo, 336 h, dose 12 µmol/kg, time 14 day.
Data set [27] relates to MCF7. In words: Induction of apoptosis in human MCF7 cells at IC50 measured after 4 hrs by Annexin-V FITC/propidium iodide staining based flow cytometry. Format: functional, cell-based.

Take H-VKRFKKFFRKLKKSV-NH2: the IC50 in data set [1] was 18.2 µM; in data set [2] it was 15.1 µM.

As for H-KFFRKLKKS-NH2, the IC50 in [1] and in [2] was > 50 µM in each case.

For `CC(=O)O[C@H]1C(=O)[C@@]2(C)[C@H]([C@H](OC(=O)c3ccccc3)[C@]3(O)C[C@H](OC(=O)[C@H](O)[C@@H](NC(=O)c4ccccc4)c4ccccc4)C(C)=C1C3(C)C)[C@]1(OC(C)=O)CO[C@@H]1C[C@@H]2O` [PACLITAXEL], the Activity result in [3] is given as “Toxic”; in [4], “Toxic”; in data set [5], “Toxic”; in data set [8] it was “Toxic”; in [9], 75.7%; in data set [12], “Toxic”. In addition, the Activity result is reported as “Toxic” in [16]; 65.7% in data set [17]; “Toxic” in [19]; “Toxic” in data set [20]; “Toxic” in data set [21]; “Toxic” in data set [22]. Also, the Activity result in [23], in data set [24], in data set [25] and in data set [26] was “Toxic” in each case. Moreover, the IC50 in [6] is 0.0092 µM; in data set [1], 0.0066 µM; in [7], 0.0163 µM; in [10] it was 0.0152 µM; in data set [11] it was 23.9 µM; in data set [2] it was 0.0086 µM. The Drug uptake result in data set [13] and in data set [15] was “Active” in each case. The result in [14], in data set [18] and in [27] was Active.

Turning to H-RFKKFFRKL-NH2, the IC50 in data set [1] and in [2] was > 50 µM each time.

On to H-KRFKKFFRK-NH2, for which the IC50 in [1] and in [2] was > 50 µM each time.

H-VKRFKKFFR-NH2: the IC50 in data set [1] and in data set [2] was > 50 µM each time.

H-KKFFRKLKK-NH2: the IC50 in [1] and in data set [2] was > 50 µM throughout.

Take H-FFRKLKKSV-NH2: the IC50 in data set [1] and in [2] was > 50 µM in each case.

Consider H-FKKFFRKLK-NH2, for which the half-maximal inhibitory concentration (IC50) in [1] and in [2] was > 50 µM each time.
